The values below come from ChEMBL document CHEMBL1145519, “Exploitation of structural and regulatory diversity in glutamate racemases” (Nature, 2007).

The nature of assay [1]: Inhibition of MurI in Staphylococcus aureus.
Assay [2] relates to Staphylococcus aureus. In words: Antimicrobial activity against Staphylococcus aureus. In kind it is functional.
In assay [3] the target is T1, Glutamate racemase (Helicobacter pylori (strain ATCC 700392 / 26695) (Campylobacterpylori), UniProt P56068).
T1 sequence (P56068 whole entry): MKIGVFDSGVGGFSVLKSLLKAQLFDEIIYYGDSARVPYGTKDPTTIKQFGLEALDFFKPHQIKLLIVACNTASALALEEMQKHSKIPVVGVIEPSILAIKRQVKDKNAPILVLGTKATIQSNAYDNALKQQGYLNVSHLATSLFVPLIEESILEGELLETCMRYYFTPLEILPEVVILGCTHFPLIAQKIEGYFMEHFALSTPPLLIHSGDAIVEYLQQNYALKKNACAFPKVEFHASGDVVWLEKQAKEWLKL
In words: Inhibition of Helicobacter pylori glutamate racemase.

The nature of assay [4]: Inhibition of MurI in Escherichia coli.
The test system of assay [5] is Streptococcus pneumoniae. The assay can be described thus: Antimicrobial activity against Streptococcus pneumoniae. In kind it is functional.
Assay [6] deals with T1, Glutamate racemase. In words: Binding affinity to Helicobacter pylori MurI by protein fluorescence binding assay.
Assay [7] has as its system Helicobacter pylori. The assay can be described thus: Antimicrobial activity against Helicobacter pylori. In kind it is functional.
For assay [8], the system named is Escherichia coli. The assay can be described thus: Antimicrobial activity against Escherichia coli. In kind it is functional.
The target of assay [9] is T2, Glutamate racemase (Streptococcus pneumoniae serotype 4 (strain ATCC BAA-334 / TIGR4), UniProt P63640).
T2 sequence (P63640 whole entry): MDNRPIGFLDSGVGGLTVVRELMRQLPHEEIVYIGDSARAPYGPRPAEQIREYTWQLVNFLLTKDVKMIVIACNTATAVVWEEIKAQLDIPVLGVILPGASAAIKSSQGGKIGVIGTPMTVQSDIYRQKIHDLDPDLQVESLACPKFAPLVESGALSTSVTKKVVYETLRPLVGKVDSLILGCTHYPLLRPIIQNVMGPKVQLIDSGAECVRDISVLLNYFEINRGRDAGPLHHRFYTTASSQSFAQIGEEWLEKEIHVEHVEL
In words: Inhibition of MurI in Streptococcus pneumoniae.

Assay [10] has as its target T1, Glutamate racemase. The assay can be described thus: Binding affinity to Helicobacter pylori MurI by isothermal titration calorimetry.
Assay [11] addresses Glutamate racemase (Helicobacter pylori (strain ATCC 700392 / 26695) (Campylobacterpylori), UniProt P56068, A75T). In words: Inhibition of Helicobacter pylori MurI A75T mutant.
The target of assay [12] is Glutamate racemase (Helicobacter pylori (strain ATCC 700392 / 26695) (Campylobacterpylori), UniProt P56068, E151K). The assay can be described thus: Inhibition of Helicobacter pylori MurI E151K mutant.
Sequence of Glutamate racemase (Helicobacter pylori (strain ATCC 700392 / 26695) (Campylobacterpylori), UniProt P56068, E151K) (P56068 whole entry E151K): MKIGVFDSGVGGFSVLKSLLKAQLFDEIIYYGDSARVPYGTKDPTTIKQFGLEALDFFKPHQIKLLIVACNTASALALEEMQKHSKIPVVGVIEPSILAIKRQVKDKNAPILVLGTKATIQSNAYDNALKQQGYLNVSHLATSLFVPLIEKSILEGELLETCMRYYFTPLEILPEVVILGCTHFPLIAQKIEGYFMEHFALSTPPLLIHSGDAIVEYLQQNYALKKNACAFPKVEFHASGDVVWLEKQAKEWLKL

Converted amounts (≈) assume the structure as drawn. A value given as a limit tells only on which side of the number the result lay.

Sequence of Glutamate racemase (Helicobacter pylori (strain ATCC 700392 / 26695) (Campylobacterpylori), UniProt P56068, A75T) (P56068 whole entry A75T): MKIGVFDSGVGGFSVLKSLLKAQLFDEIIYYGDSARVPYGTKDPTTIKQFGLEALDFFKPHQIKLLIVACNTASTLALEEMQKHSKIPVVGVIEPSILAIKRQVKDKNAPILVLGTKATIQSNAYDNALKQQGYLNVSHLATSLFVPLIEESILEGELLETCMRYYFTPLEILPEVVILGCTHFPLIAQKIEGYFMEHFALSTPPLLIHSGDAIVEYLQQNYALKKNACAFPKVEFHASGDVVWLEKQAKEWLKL

In general, IC50 refers to the midpoint of a concentration-inhibition curve. Read a low IC50 as inhibition by little substance. A word on the MIC: it is the lowest concentration that inhibits growth of the organism. Read a low MIC as greater potency. Broadly, the Kd is the free concentration of one partner at which half of the binding sites on the other are occupied at equilibrium, for simple one-to-one binding. Read a low Kd as tighter binding. In the case of `Cn1cc(C#N)cc1-c1c2c(=O)n(C)c(=O)n(CC3CC3)c2nn1Cc1ccnc2ccc(Cl)cc12`, the half-maximal inhibitory concentration (IC50) in assay [1] is greater than 400 µM; in [3], 0.025 µM; in assay [4] it was greater than 400 µM; in assay [9], greater than 400 µM. For the same compound, the MIC in assay [2] is greater than 64 µg/mL; in assay [5] it was greater than 64 µg/mL; in assay [7], 0.5 µg/mL (≈ 1 µM); in assay [8], greater than 64 µg/mL. Besides, the affinity in [6], expressed as Kd, was 0.025 µM.

As for `CC(C)Cn1c(=O)n(C)c(=O)c2c(-c3ccncc3)n(Cc3cccc4ccccc34)nc21`, the IC50 in assay [1] is greater than 400 µM; in assay [3] it was 1.4 µM; in assay [4], greater than 400 µM; in assay [9], greater than 400 µM. Further, the MIC in assay [2] was greater than 64 µg/mL; in assay [5], greater than 64 µg/mL; in assay [7], 4 µg/mL (≈ 9.1 µM); in [8], greater than 64 µg/mL. The Kd was found to be 2.9 µM in [10] and 3.9 µM in [6].

For orientation: Ki means a dissociation constant, usually derived from enzyme kinetics or from competition with a known ligand. The low end stands for tighter binding, the high end for weaker binding. For `N[C@H](CCC(=O)O)C(=O)O` [D-GLUTAMATE], the Ki in [3] was 5.8 µM; in assay [11], 661 µM; in [12] it was greater than 100000 µM.
